From US20220064141A1, “BENZOPYRIDONE HETEROCYCLIC COMPOUND AND USE THEREOF” (BrightGene Bio-Medical Technology Co., Ltd., priority 2019, published 2022)

System: NCI-H358 human non-small cell lung cancer cell with KRAS G12C mutation
Test: Cell Titer-Glo cell viability, NCI-H358 cells (72 h)
Format: cell-based
Details: class symbols
Description: Effect Example 1: Pharmacodynamic Assay 1 (Determination of the efficacy of the compounds of the present disclosure on NCI-H358 human non-small cell lung cancer cell with KRAS G12C mutation)
The following method was used to determine the effect of the compounds of the present disclosure on tumor cell proliferation.
For the KRAS G12C subtype, NCI-H358 non-small cell lung cancer cells with KRAS G12C mutation were used to determine the efficacy of the compounds in inhibiting cancer cell viability. NCI-H358 cells were cultured in a DMEM medium containing 10% fetal bovine serum, 100 U penicillin and […] streptomycin. The cells were cultured in an incubator with 5% CO2 at 37° C. Cancer cell viability was evaluated by determining the content of ATP with Cell Titer-Glo® kit (Luminescent Cell Viability Assay kit, please refer to the manufacturer's instructions for use) and evaluating the inhibition of cell growth.
The experimental method was proceeded in accordance with the steps in the instructions for the kit, and was described briefly as follows. The test compounds were first dissolved in DMSO to prepare stock solutions, and then the stock solutions were subjected to gradient dilution with the culture media of the corresponding cells, thereby preparing test samples. The final concentrations of the compounds were in the range of 30 μM to 0.01 nM. Tumor cells in logarithmic growth phase were seeded into a 96-well cell culture plate at an appropriate density. After the cell culture plate was left overnight in an incubator with 5% CO2 at 37° C., the test compound samples were added thereto and then the cells were further cultured for 72 hours. After the incubation was complete, an appropriate volume of Cell Titer-Glo® reagent was added into each well, and the cells were incubated at 37° C. for 1 to 4 hours. Then, the […] was read on a microplate reader.

| Compound | IC50 (Homo sapiens, NCI-H358, 72 h) | IC50 |
| --- | --- | --- |
| C=CC(=O)N1CCN(c2c(C#N)c(=O)n(-c3ccccc3C(C)C)c3cc(-c4cc(Cl)ccc4F)c(Cl)cc23)[C@@H](C)C1 [Compound I-37] | 100 to 1000 nM |  |
| C=CC(=O)N1CCN(c2c(C#N)c(=O)n(-c3ccccc3C(C)C)c3cc(-c4ccc(Cl)cc4Cl)c(Cl)cc23)[C@@H](C)C1 [Compound I-38] | 100 to 1000 nM |  |
| C=CC(=O)N1CCN(c2c(C#N)c(=O)n(-c3ccccc3C(C)C)c3cc(-c4cc(Cl)cc(Cl)c4)c(Cl)cc23)[C@@H](C)C1 [Compound I-39] | 100 to 1000 nM |  |
| C=CC(=O)N1CCN(c2c(C#N)c(=O)n(-c3ccccc3C(C)C)c3cc(-c4ccc(C(F)(F)F)nc4)c(Cl)cc23)[C@@H](C)C1 [Compound I-40] | > 1000 nM |  |
| C=CC(=O)N1CCN(c2c(C#N)c(=O)n(-c3ccccc3C(C)C)c3cc(-c4cccc(N)n4)c(Cl)cc23)[C@@H](C)C1 [Compound I-41] | 100 to 1000 nM |  |
| C=CC(=O)N1CCN(c2c(C#N)c(=O)n(-c3ccccc3C(C)C)c3cc(-c4ccc(Cl)cc4F)c(Cl)cc23)[C@@H](C)C1 [Compound I-42] | 100 to 1000 nM |  |
| C=CC(=O)N1CCN(c2c(C#N)c(=O)n(-c3ccccc3C(C)C)c3cc(-c4cc(Cl)ccc4N)c(Cl)cc23)[C@@H](C)C1 [Compound I-43] | < 100 nM |  |
| C=CC(=O)N1CCN(c2c(C#N)c(=O)n(-c3ccccc3C(C)C)c3cc(-c4cccc(C(C)=O)c4)c(Cl)cc23)[C@@H](C)C1 [Compound I-44] | 100 to 1000 nM |  |
| C=CC(=O)N1CCN(c2c(C#N)c(=O)n(-c3ccccc3C(C)C)c3cc(-c4ccc(N)cc4F)c(Cl)cc23)[C@@H](C)C1 [Compound I-45] | 100 to 1000 nM |  |
| C=CC(=O)N1CCN(c2c(C#N)c(=O)n(-c3ccccc3C(C)C)c3cc(-c4ccccc4C(F)(F)F)c(Cl)cc23)[C@@H](C)C1 [Compound I-46] | > 1000 nM |  |
| C=CC(=O)N1CCN(c2c(C#N)c(=O)n(-c3ccccc3C(C)C)c3cc(-c4ccc5c(c4)CC5)c(Cl)cc23)[C@@H](C)C1 [Compound I-47] | 100 to 1000 nM |  |
| C=CC(=O)N1CCN(c2c(C#N)c(=O)n(-c3ccccc3C(C)C)c3cc(-c4c(C)cccc4C)c(Cl)cc23)[C@@H](C)C1 [Compound I-48] | 100 to 1000 nM |  |
| C=CC(=O)N1CCN(c2c(C#N)c(=O)n(-c3ccccc3C(C)C)c3cc(-c4cc(C#N)ccc4C)c(Cl)cc23)[C@@H](C)C1 [Compound I-49] | 100 to 1000 nM |  |
| C=CC(=O)N1CCN(c2c(C#N)c(=O)n(-c3ccccc3C(C)C)c3cc(-c4ccc(C#N)cc4C)c(Cl)cc23)[C@@H](C)C1 [Compound I-50] | 100 to 1000 nM |  |
| C=CC(=O)N1CCN(c2c(C#N)c(=O)n(-c3ccccc3C(C)C)c3cc(-c4coc5ccccc45)c(Cl)cc23)[C@@H](C)C1 [Compound I-51] | 100 to 1000 nM |  |
| C=CC(=O)N1CCN(c2c(C#N)c(=O)n(-c3ccccc3C(C)C)c3cc(-c4ccnc5[nH]ccc45)c(Cl)cc23)[C@@H](C)C1 [Compound I-52] | 100 to 1000 nM |  |
| C=CC(=O)N1CCN(c2c(C#N)c(=O)n(-c3ccccc3C(C)C)c3cc(-c4ccc(C5CC5)cc4)c(Cl)cc23)[C@@H](C)C1 [Compound I-53] | 100 to 1000 nM |  |
| C=CC(=O)N1CCN(c2c(C#N)c(=O)n(-c3ccccc3C(C)C)c3cc(-c4cn[nH]c4)c(Cl)cc23)[C@@H](C)C1 [Compound I-54] | 100 to 1000 nM |  |
| C=CC(=O)N1CCN(c2c(C#N)c(=O)n(-c3ccccc3C(C)C)c3cc(-c4cccc5ccoc45)c(Cl)cc23)[C@@H](C)C1 [Compound I-55] | 100 to 1000 nM |  |
| C=CC(=O)N1CCN(c2c(C#N)c(=O)n(-c3ccccc3C(C)C)c3cc(-c4ccc(N)nc4C)c(Cl)cc23)[C@@H](C)C1 [Compound I-56] | 100 to 1000 nM |  |
| C=CC(=O)N1CCN(c2c(C#N)c(=O)n(-c3ccccc3C(C)C)c3cc(-c4ccc(Cl)cc4N)c(Cl)cc23)[C@@H](C)C1 [Compound I-57] | < 100 nM |  |

More lines, now with the values ahead:

| IC50 (Homo sapiens, NCI-H358, 72 h) | IC50 | Compound |
| --- | --- | --- |
| 100 to 1000 nM |  | C=CC(=O)N1CCN(c2c(C#N)c(=O)n(-c3ccccc3C(C)C)c3cc(-c4cnn(CCO)c4)c(Cl)cc23)[C@@H](C)C1 [Compound I-58] |
| > 1000 nM |  | C=CC(=O)N1CCN(c2c(C#N)c(=O)n(-c3ccccc3C(C)C)c3cc(-c4cncc(N)c4)c(Cl)cc23)[C@@H](C)C1 [Compound I-59] |
| 100 to 1000 nM |  | C=CC(=O)N1CCN(c2c(C#N)c(=O)n(-c3ccccc3C(C)C)c3cc(-c4ccc(C#N)cc4N)c(Cl)cc23)[C@@H](C)C1 [Compound I-60] |
| < 100 nM |  | C=CC(=O)N1CCN(c2c(C#N)c(=O)n(-c3ccccc3C(C)C)c3cc(-c4ccc(F)cc4O)c(Cl)cc23)[C@@H](C)C1 [Compound I-61] |
| 100 to 1000 nM |  | C=CC(=O)N1CCN(c2c(C#N)c(=O)n(-c3ccccc3C(C)C)c3cc(-c4cnc(N)nc4)c(Cl)cc23)[C@@H](C)C1 [Compound I-62] |
| 100 to 1000 nM |  | C=CC(=O)N1CCN(c2c(C#N)c(=O)n(-c3ccccc3C(C)C)c3cc(-c4ccc(F)cc4CO)c(Cl)cc23)[C@@H](C)C1 [Compound I-63] |
| 100 to 1000 nM |  | C=CC(=O)N1CCN(c2c(C#N)c(=O)n(-c3ccccc3C(C)C)c3cc(-c4ccc(N)nc4)c(Cl)cc23)[C@@H](C)C1 [Compound I-64] |
| 100 to 1000 nM |  | C=CC(=O)N1CCN(c2c(C#N)c(=O)n(-c3ccccc3C(C)C)c3cc(-c4ccccc4CO)c(Cl)cc23)[C@@H](C)C1 [Compound I-65] |
| < 100 nM |  | C=CC(=O)N1CCN(c2c(C#N)c(=O)n(-c3ccccc3C(C)C)c3cc(-c4cc(C)ccc4O)c(Cl)cc23)[C@@H](C)C1 [Compound I-66] |
| 100 to 1000 nM |  | C=CC(=O)N1CCN(c2c(C#N)c(=O)n(-c3ccccc3C(C)C)c3cc(-c4ccc(C)c(O)c4)c(Cl)cc23)[C@@H](C)C1 [Compound I-67] |
| 100 to 1000 nM |  | C=CC(=O)N1CCN(c2c(C#N)c(=O)n(-c3ccccc3C(C)C)c3cc(-c4ccn(C)c(=O)c4)c(Cl)cc23)[C@@H](C)C1 [Compound I-68] |
| < 100 nM |  | C=CC(=O)N1CCN(c2c(C#N)c(=O)n(-c3ccccc3C(C)C)c3cc(-c4cc(F)ccc4N)c(Cl)cc23)[C@@H](C)C1 [Compound I-69] |
| < 100 nM |  | C=CC(=O)N1CCN(c2c(C#N)c(=O)n(-c3ccccc3C(C)C)c3cc(-c4cc(F)ccc4O)c(Cl)cc23)[C@@H](C)C1 [Compound I-70] |
| 100 to 1000 nM |  | C=CC(=O)N1CCN(c2c(C#N)c(=O)n(-c3ccccc3C(C)C)c3cc(-c4cccc(O)c4F)c(Cl)cc23)[C@@H](C)C1 [Compound I-71] |
|  | < 100 nM | C=CC(=O)N1CCN(c2c(C#N)c(=O)n(-c3ccccc3C(C)C)c3cc(-c4ccc(F)cc4O)c(Cl)cc23)[C@@H](C)C1 [Compound I-72] |
| 100 to 1000 nM |  | C=CC(=O)N1CCN(c2c(C#N)c(=O)n(-c3ccccc3C(C)C)c3cc(-c4cc(O)ccc4F)c(Cl)cc23)[C@@H](C)C1 [Compound I-73] |
| > 1000 nM |  | C=CC(=O)N1CCN(c2c(C#N)c(=O)n(-c3ccccc3C(C)C)c3cc(-c4ccc5[nH]ncc5c4)c(Cl)cc23)[C@@H](C)C1 [Compound I-74] |
| 100 to 1000 nM |  | C=CC(=O)N1CCN(c2c(C#N)c(=O)n(-c3ccccc3C(C)C)c3cc(-c4ccccc4C4CC4)c(Cl)cc23)[C@@H](C)C1 [Compound I-75] |
| < 100 nM |  | C=CC(=O)N1CCN(c2c(C#N)c(=O)n(-c3ccccc3C(C)C)c3cc(-c4cc(Cl)cc(C)c4N)c(Cl)cc23)[C@@H](C)C1 [Compound I-76] |
| 100 to 1000 nM |  | C=CC(=O)N1CCN(c2c(C#N)c(=O)n(-c3ccccc3C(C)C)c3cc(-c4cccc(N)c4F)c(Cl)cc23)[C@@H](C)C1 [Compound I-77] |
| < 100 nM |  | C=CC(=O)N1CCN(c2c(C#N)c(=O)n(-c3ccccc3C(C)C)c3cc(-c4cc(C(F)(F)F)cc(Cl)c4N)c(Cl)cc23)[C@@H](C)C1 [Compound I-79] |
| < 100 nM |  | C=CC(=O)N1CCN(c2c(C#N)c(=O)n(-c3ccccc3C(C)C)c3cc(-c4cc(C)cc(Cl)c4N)c(Cl)cc23)[C@@H](C)C1 [Compound I-80] |
| 100 to 1000 nM |  | C=CC(=O)N1CCN(c2c(C#N)c(=O)n(-c3ccccc3C(C)C)c3cc(-c4cc(C)cc(C)c4N)c(Cl)cc23)[C@@H](C)C1 [Compound I-81] |
|  | < 100 nM | C=CC(=O)N1CCN(c2c(C#N)c(=O)n(-c3ccccc3C(C)C)c3cc(-c4cc(Cl)ccc4N)c(Cl)cc23)[C@@H](C)C1 [Compound I-82] |
| < 100 nM |  | C=CC(=O)N1CCN(c2c(C#N)c(=O)n(-c3c(C)ccnc3C(C)C)c3cc(-c4c(C)ccc5[nH]ncc45)c(Cl)cc23)[C@@H](C)C1 [Compound I-83-1] |
|  | 100 to 1000 nM | C=CC(=O)N1CCN(c2c(C#N)c(=O)n(-c3c(C)ccnc3C(C)C)c3cc(-c4c(C)ccc5[nH]ncc45)c(Cl)cc23)[C@@H](C)C1 [Compound I-83-2] |
| < 100 nM |  | C=CC(=O)N1CCN(c2c(C#N)c(=O)n(-c3c(C)ccnc3C(C)C)c3cc(-c4c(OC)ccc(Cl)c4F)c(Cl)cc23)[C@@H](C)C1 [Compound I-84-1] |
|  | 100 to 1000 nM | C=CC(=O)N1CCN(c2c(C#N)c(=O)n(-c3c(C)ccnc3C(C)C)c3cc(-c4c(OC)ccc(Cl)c4F)c(Cl)cc23)[C@@H](C)C1 [Compound I-84-2] |
| 100 to 1000 nM |  | C=CC(=O)N1CCN(c2c(C#N)c(=O)n(-c3ccccc3Cl)c3cc(-c4c(OC)ccc(Cl)c4F)c(Cl)cc23)[C@@H](C)C1 [Compound I-85-1] |
|  | 100 to 1000 nM | C=CC(=O)N1CCN(c2c(C#N)c(=O)n(-c3ccccc3Cl)c3cc(-c4c(OC)ccc(Cl)c4F)c(Cl)cc23)[C@@H](C)C1 [Compound I-85-2] |
